Data taken from patent US11241436B2, “Autophagy inducers for treatment of CNS conditions” (Northwestern University, priority 2017, dated 2022).

How the values were obtained:
CB1R signaling = CB1R signaling in brain (phosphorylation of MEK and JNK) after chronic WIN; format: in vivo, mouse; details: repeated WIN treatment 14 d
Description: WT mice were treated with either daily WIN or vehicle for 14 d, and then subject to an acute dosage of WIN 1 h prior to collection of brain samples.
To investigate whether restoration of CB1R signaling underlies the behavioral regulation by autophagy activation, the level and functionality of CB1R in mouse brain after co-administration of chronic cannabinoids and autophagy inducers were analyzed. […] To determine whether the increased level of CB1R represents CB1R re-sensitization in the brain, the agonist-induced phosphorylation of signaling kinases downstream of CB1R after chronic WIN exposure were analyzed.

WT mice = test: Analgesic tolerance test during chronic WIN treatment; format: in vivo, mouse; details: after 14 d of repeated WIN dosage (day 14)
Description: Briefly, mice were injected with WIN for 14 d, and analgesic tolerance was measured without WIN treatment on day 0, and after 1-h WIN treatment on day 1 and day 14.
There were no genotype differences either in basal pain sensitivity to infrared heat-generated pain (agonist-free, day 0) (FIG. 2C), or in analgesic effects of acute WIN treatment prior to chronic WIN administration (day 1) (FIG. 2D).

[1] = Body weight during chronic WIN treatment; format: in vivo, mouse; details: mice of all genotypes during chronic WIN treatment
From the text: N=9-13 mice/group. Results represent mean±s.e.m.

Aβ42 = test: Dot blot assay of Aβ42 in brain of 5XFAD mice; format: in vivo, mouse; details: 5XFAD Becn1 F121A mice, 2 mg/kg i.p. once per day for 7 days
Description: Total protein loading was labeled by Ponceau S. N=5. **, P<0.01, t test.
Total protein loading was labeled by Ponceau S. Triplicate experiments from 4-5 mice in each group were shown. Results represent mean±s.e.m. NS, not significant; *, P<0.05; **, P<0.01; ***, P<0.001, t test.
Total protein loading was labeled by Ponceau S. Triplicate experiments from 4 mice in each group were shown.
Dot blot assay. Snap frozen hemi-brain were homogenized in 800 μl phosphate-buffered saline (PBS; Sigma-Aldrich, D8537) with 1% Triton X-100 supplemented with halt proteinase inhibitor cocktail (ThermoFisher Scientific), and halt phosphatase inhibitor cocktail (ThermoFisher Scientific). Protein concentration was quantified using BCA Assay (Pierce). For Af342 dot blots, 10 mg/ml brain homogenates were extracted in guanidine buffer (5 M guanidine-HCl [GuHCl], 50 mM Tris HCl pH 8.0) overnight at room temperature. One μl of sample was spotted in triplicate on 0.2 μm nitrocellulose membrane, and dried for 1 h at 37° C. The membrane was stained with Ponceau S, and the dot blot signal on the membrane was detected by immunostaining with Aβ42 antibody (Invitrogen, 700254, 1:1000) and HRP-conjugated secondary antibody (Santa Cruz Biotechnology, sc2004, 1:2000). Aβ42 signals were normalized to the Ponceau S staining. To separate soluble and insoluble Aβ fractions, 10 mg/ml of the total homogenated brains were centrifuged at 14000 rpm, 4° C. for 30 min. The supernatant (soluble fraction) was used directly for dot blot assays. The pellet (insoluble fraction) was extracted in guanidine buffer overnight at room temperature, and used in dot blot analyses. […] One μl of each sample was spotted on nitrocellulose membrane for dot blot analysis.

LC3 = test: Promega Autophagy Assay System (HiBiT-tagged LC3 reporter, autophagy flux); format: cell-based; details: LC3 reporter signal; decrease = increased autophagy
From the text: The Promega Augophagy Assay System uses LC3 to monitor the autophagy process. […] LgBiT is a […] recombinant protein derived from NanoLuc. When HiBiT associates with LgBiT, a strong luciferase activity is reconstituted. An increase in autophagy will accelerate the degradation of LC3 reporter which decreases the assay signal. In contrast, inhibition of autophagy causes the accumulation of LC3 which will increase the reporter levels and assay signal.

Structure (SMILES) | AC50 (LC3) [µM] | other results
Cc1c(C(=O)c2cccc3ccccc23)c2cccc3c2n1[C@H](CN1CCOCC1)CO3 [WIN, reference compound] | – | activation of CB1R (CNR1) signaling induced by agonists (CB1R signaling): decreased activation; analgesic effect of WIN (WT mice): markedly decreased; body weight [1]: remained constant
CNC(=O)c1ccccc1Oc1nc(Nc2cc(OC)c(OC)c(OC)c2)ncc1Br [SBI-0206965, reference compound] | – | Becn1 F121A-induced reduction in brain Aβ42 levels (Aβ42): abolished the reduction
CN(C)CCCn1cnc2c(c(-c3ccccc3)c(-c3ccccc3)n2Cc2ccccc2)c1=N | 29.1 | –
N=c1c2c(-c3ccccc3)c(-c3ccccc3)n(Cc3ccccc3)c2ncn1CCC1CCC(O)CC1 (stereo not drawn) | 1.84 | –
COc1ccc(-c2c(-c3ccc(OC)cc3)n(Cc3ccccc3)c3ncn([C@H]4CC[C@H](OC)CC4)c(=N)c23)cc1 | 13 | –
CN(C)CCn1cnc2c(c(-c3ccccc3)c(-c3ccccc3)n2Cc2ccccc2)c1=N | 10.3 | –
COCCn1cnc2c(c(-c3ccccc3)c(-c3ccccc3)n2Cc2ccccc2)c1=N | 13 | –
